Values quoted from earlier work as cited in patent US20240377385A1, “METHODS AND COMPOSITIONS OF MATTER FOR TREATING CANCER AND PREDICTING RESPONSE TO THERAPY” (ICCA INC., priority 2023, published 2024).

Assays:
S-180 sarcoma = conditions: parenteral administration; cited from earlier work
HUVEC = conditions: in vitro; cited from earlier work
[1] = test system: PAIII androgen-independent syngeneic prostate cancer cell line; conditions: daily intraperitoneal administration for 30 days, evaluation at day 40; cited from earlier work
NK = conditions: high dose; cited from earlier work
[2] = test system: hypoxia inducible factor (HIF)-1; conditions: cited from earlier work
T cell and B cell = conditions: high dose; in vitro; cited from earlier work
dendritic cells = conditions: cited from earlier work
[3] = test system: battery of tumor cell lines; conditions: in vitro; cited from earlier work
vascular cord formation = conditions: in vivo administration; cited from earlier work
neovascularization = conditions: cited from earlier work
[4] = test system: human xenografted glioma, ovarian, and neuroblastoma cells; conditions: cited from earlier work
[5] = test system: monocytes derived from human peripheral blood; conditions: 12 hour exposure; cited from earlier work

Compound | angiogenesis and the pro-angiogenic factors bFGF, VEGF, and MMP-2 (S-180 sarcoma) | tumor growth (S-180 sarcoma) | HUVEC proliferation (HUVEC) | pulmonary and lymphatic metastasis [1] | tumor growth [1] | NK cytotoxic activity (NK) | activation of the hypoxia inducible factor (HIF)-1 [2] | T cell and B cell proliferative responses as well as IL-2 secretion (T cell and B cell) | T cell activating ability of dendritic cells (dendritic cells) | cytotoxicity of Docetaxel, Epirubicin, Irinotecan and 5-FU [3] | vascular cord formation (vascular cord formation) | neovascularization (neovascularization) | in vivo inhibition of xenografted cells [4] | FcgammaR-mediated cytokine production and antibody-dependent cellular cytotoxicity by monocytes [5]
O=C1O[C@H]([C@@H](O)CO)C(O)=C1O [AA, ascorbic acid] | suppression | reduced tumor growth | inhibits | reduction | significant inhibition | inhibits | suppresses activation | inhibits | inhibit | Enhancement | suppressed vascular cord formation | suppressing neovascularization | successful in vivo inhibition | 
CCOCc1nc2c(N)nc3ccccc3c2n1CC(C)(C)O [Group R-848, resiquimod] |  |  |  |  |  |  |  |  |  |  |  |  |  | increased
